Reference: publication PMC6704710, “Preclinical evaluation of 3D185, a novel potent inhibitor of FGFR1/2/3 and CSF-1R, in FGFR-dependent and macrophage-dominant cancer models” (Journal of Experimental & Clinical Cancer Research : CR, 2019)

Columns and labels:
[1] = biological target: T1, MAPKAP-K2(h) (Homo sapiens, UniProt P49137); experiment: Eurofins kinase panel; assay type: biochemical; conditions: read-out: Inhibition rate (%)
T1 construct: purchased Eurofins (KinaseProfiler)

[2] = biological target: T2, SGK3(h) (Homo sapiens, UniProt Q96BR1); experiment: Eurofins kinase panel; assay type: biochemical; conditions: read-out: Inhibition rate (%)
T2 construct: purchased Eurofins (KinaseProfiler)
T2 sequence (Q96BR1 1-496): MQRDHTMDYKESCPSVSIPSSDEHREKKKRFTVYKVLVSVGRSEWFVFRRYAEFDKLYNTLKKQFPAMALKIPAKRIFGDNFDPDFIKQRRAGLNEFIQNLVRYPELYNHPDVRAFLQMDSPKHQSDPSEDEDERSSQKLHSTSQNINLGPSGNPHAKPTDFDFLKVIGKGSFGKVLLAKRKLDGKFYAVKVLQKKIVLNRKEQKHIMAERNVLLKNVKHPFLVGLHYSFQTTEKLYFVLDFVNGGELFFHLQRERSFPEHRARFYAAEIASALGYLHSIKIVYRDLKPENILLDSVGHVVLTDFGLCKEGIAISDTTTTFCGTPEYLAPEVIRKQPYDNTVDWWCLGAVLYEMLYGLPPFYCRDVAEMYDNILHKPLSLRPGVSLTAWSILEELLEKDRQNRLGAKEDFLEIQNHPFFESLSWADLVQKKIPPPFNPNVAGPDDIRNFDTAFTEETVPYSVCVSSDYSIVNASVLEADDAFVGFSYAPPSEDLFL

[3] = biological target: T3, JNK3(h) (Homo sapiens, UniProt P53779); experiment: Eurofins kinase panel; assay type: biochemical; conditions: read-out: Inhibition rate (%)
T3 construct: purchased Eurofins (KinaseProfiler)
T3 sequence (P53779 whole entry): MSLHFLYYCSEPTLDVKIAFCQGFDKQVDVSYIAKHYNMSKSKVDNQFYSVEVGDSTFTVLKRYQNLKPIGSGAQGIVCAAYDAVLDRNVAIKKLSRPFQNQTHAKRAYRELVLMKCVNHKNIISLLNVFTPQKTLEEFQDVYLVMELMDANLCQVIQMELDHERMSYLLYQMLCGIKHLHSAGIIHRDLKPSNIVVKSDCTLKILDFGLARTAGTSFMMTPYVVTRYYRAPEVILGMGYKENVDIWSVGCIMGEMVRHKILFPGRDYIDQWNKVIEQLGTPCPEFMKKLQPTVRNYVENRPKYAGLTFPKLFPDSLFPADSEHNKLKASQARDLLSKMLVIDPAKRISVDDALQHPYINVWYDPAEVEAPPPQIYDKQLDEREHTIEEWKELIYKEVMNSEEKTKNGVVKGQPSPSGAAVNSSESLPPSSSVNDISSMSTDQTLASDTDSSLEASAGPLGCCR

[4] = biological target: T4, PKCι(h) (Homo sapiens, UniProt P41743); experiment: Eurofins kinase panel; assay type: biochemical; conditions: read-out: Inhibition rate (%)
T4 construct: purchased Eurofins (KinaseProfiler)
T4 sequence (P41743 1-596): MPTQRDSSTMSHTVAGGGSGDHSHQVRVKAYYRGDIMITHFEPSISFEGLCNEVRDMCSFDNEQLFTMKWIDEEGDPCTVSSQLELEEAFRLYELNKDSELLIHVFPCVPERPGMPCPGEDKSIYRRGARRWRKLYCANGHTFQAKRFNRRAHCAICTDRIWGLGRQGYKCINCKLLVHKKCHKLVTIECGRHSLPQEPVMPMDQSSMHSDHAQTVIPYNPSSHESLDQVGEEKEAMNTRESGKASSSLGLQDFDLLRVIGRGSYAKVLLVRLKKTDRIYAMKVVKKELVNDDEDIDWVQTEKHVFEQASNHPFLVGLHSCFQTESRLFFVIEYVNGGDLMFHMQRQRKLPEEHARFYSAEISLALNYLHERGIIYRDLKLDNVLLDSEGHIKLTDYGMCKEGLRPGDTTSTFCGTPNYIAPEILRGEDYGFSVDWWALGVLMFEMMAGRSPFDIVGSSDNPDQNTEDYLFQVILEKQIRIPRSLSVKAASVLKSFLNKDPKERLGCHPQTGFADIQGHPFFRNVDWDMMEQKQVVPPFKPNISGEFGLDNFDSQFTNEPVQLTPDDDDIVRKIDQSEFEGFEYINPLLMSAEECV

[5] = biological target: T5, Aurora-A(h) (Homo sapiens, UniProt O14965); experiment: Eurofins kinase panel; assay type: biochemical; conditions: read-out: Inhibition rate (%)
T5 construct: purchased Eurofins (KinaseProfiler)
T5 sequence (O14965 1-403): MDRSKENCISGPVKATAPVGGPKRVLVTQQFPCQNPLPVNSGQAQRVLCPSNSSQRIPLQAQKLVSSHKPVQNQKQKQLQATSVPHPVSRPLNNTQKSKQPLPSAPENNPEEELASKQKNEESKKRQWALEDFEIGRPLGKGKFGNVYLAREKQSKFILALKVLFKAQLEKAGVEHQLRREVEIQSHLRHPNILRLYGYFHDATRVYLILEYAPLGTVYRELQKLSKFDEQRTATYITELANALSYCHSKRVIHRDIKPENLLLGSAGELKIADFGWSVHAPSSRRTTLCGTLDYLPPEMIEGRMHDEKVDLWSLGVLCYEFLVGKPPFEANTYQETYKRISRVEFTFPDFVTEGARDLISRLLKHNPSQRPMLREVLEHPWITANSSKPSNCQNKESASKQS

[6] = biological target: T6, EphA2(h) (Homo sapiens, UniProt P29317); experiment: Eurofins kinase panel; assay type: biochemical; conditions: read-out: Inhibition rate (%)
T6 construct: purchased Eurofins (KinaseProfiler)
T6 sequence (P29317 24-976): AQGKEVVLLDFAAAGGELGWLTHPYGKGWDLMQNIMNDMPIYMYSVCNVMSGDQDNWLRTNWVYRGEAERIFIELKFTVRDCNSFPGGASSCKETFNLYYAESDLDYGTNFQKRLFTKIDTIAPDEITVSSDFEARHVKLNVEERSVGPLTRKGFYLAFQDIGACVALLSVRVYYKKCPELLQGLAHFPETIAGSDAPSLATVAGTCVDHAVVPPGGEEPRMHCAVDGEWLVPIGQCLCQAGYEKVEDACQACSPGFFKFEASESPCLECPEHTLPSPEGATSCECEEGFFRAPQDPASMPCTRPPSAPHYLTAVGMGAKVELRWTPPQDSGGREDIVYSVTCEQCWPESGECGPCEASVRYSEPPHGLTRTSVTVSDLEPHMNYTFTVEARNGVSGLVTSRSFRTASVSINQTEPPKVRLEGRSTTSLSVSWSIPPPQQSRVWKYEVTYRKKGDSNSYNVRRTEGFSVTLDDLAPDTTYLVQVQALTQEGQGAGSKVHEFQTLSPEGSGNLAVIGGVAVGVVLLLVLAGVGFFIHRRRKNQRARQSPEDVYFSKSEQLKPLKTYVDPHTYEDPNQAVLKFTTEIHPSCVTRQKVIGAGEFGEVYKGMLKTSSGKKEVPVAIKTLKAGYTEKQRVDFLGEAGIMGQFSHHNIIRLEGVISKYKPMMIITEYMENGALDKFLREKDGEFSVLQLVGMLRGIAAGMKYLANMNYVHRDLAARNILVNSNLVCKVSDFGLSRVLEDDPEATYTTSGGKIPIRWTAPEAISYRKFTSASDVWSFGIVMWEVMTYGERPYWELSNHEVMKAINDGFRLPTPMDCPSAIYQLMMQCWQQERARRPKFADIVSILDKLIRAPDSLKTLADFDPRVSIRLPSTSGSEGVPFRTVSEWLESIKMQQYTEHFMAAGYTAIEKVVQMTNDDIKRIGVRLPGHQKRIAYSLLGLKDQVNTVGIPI

[7] = system: M-NFS-60; experiment: Cell proliferation assay; assay type: cell-based, mouse; conditions: Mus musculus; 72 h, mean ± SD
Description: The cancer cell lines indicated in Figure 3 were seeded in 96-well plates at a low density in growth medium. The next day, appropriate controls or the designated concentrations of the compounds were added to each well, and the cells were incubated for 72 h. HUVECs (passage 3) were seeded in 96-well plates in growth medium overnight and transferred to serum-free medium for 24 h. The following day, appropriate controls or the designated concentrations of the compounds were added to each well, and 100 ng/mL growth factor (bFGF or VEGF) was added to the indicated wells. The cells were incubated for 48 h. Finally, cell proliferation was determined using a sulforhodamine B (SRB) assay or a cell counting kit-8 (CCK-8) assay. […] IC50 values for proliferation curves were calculated using a 4-parameter logistic nonlinear regression model with SoftMax Pro Software (Molecular Devices, San Jose, USA).

[8] = biological target: T7, Snk(h) (Homo sapiens, UniProt Q9NYY3); experiment: Eurofins kinase panel; assay type: biochemical; conditions: read-out: Inhibition rate (%)
T7 construct: purchased Eurofins (KinaseProfiler)
T7 sequence (Q9NYY3 whole entry): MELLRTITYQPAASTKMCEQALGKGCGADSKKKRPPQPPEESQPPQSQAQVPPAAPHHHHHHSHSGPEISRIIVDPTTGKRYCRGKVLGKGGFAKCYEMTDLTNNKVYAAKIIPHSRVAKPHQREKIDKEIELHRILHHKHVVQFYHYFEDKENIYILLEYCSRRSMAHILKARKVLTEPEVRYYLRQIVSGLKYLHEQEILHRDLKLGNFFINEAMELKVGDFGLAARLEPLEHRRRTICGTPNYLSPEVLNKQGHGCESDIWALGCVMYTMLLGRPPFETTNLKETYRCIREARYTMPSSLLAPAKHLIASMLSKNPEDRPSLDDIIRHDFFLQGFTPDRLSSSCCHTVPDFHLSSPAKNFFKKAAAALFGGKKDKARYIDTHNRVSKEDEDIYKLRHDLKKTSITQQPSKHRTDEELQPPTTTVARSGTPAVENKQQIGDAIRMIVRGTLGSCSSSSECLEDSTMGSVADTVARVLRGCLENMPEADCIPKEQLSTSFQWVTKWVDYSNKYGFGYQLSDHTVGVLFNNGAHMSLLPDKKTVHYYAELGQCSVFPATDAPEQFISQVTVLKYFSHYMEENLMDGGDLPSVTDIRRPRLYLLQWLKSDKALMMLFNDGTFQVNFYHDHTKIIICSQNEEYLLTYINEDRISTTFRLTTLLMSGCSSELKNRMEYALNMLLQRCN

[9] = biological target: T8, CDK2/cyclinE(h) (Homo sapiens, UniProt P24941); experiment: Eurofins kinase panel; assay type: biochemical; conditions: read-out: Inhibition rate (%)
T8 construct: purchased Eurofins (KinaseProfiler)

T1 sequence (P49137 whole entry): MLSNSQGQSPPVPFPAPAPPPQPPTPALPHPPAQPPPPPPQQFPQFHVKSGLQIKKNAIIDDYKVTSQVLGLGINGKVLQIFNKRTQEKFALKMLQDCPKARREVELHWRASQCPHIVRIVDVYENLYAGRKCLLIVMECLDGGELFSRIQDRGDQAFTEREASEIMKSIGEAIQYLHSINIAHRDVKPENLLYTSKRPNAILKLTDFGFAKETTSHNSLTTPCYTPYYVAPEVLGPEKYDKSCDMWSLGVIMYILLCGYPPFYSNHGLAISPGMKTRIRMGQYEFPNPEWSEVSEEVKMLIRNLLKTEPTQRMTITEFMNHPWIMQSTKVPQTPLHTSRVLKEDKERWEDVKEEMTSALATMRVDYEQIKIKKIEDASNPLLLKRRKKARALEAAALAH

COc1cc(OC)c(Cl)c(-c2ccc3c(NC(=O)c4ccc(N5CCNC(C)(C)C5)cc4)n[nH]c3n2)c1Cl [3D185]
inhibition at 0.01 µM ([1]; 10 nM): 0%
inhibition at 0.1 µM ([1]; 100 nM): 10%
inhibition at 1 µM ([1]; 1000 nM): 0%
inhibition at 0.01 µM ([2]; 10 nM): 3%
inhibition at 0.1 µM ([2]; 100 nM): 2%
inhibition at 1 µM ([2]; 1000 nM): 14%
inhibition at 0.01 µM ([3]; 10 nM): -17%
inhibition at 0.1 µM ([3]; 100 nM): -22%
inhibition at 1 µM ([3]; 1000 nM): -36%
inhibition at 0.01 µM ([4]; 10 nM): -1%
inhibition at 0.1 µM ([4]; 100 nM): 0%
inhibition at 1 µM ([4]; 1000 nM): -1%
inhibition at 0.01 µM ([5]; 10 nM): 4%
inhibition at 0.1 µM ([5]; 100 nM): 5%
inhibition at 1 µM ([5]; 1000 nM): 3%
inhibition at 0.01 µM ([6]; 10 nM): 13%
inhibition at 0.1 µM ([6]; 100 nM): 24%
inhibition at 1 µM ([6]; 1000 nM): 73%
IC50 [7]: 0.0167 ± 0.0025 µM
inhibition at 0.01 µM ([8]; 10 nM): 0%
inhibition at 0.1 µM ([8]; 100 nM): -2%
inhibition at 1 µM ([8]; 1000 nM): 10%
inhibition at 0.01 µM ([9]; 10 nM): -5%
inhibition at 0.1 µM ([9]; 100 nM): 2%
inhibition at 1 µM ([9]; 1000 nM): 10%
